The record followed here is patent publication US10442793B2, “Oxa spiro derivative, preparation method therefor, and applications thereof in medicines” (Jiangsu Hengrui Medicine Co., Ltd., priority 2015, dated 2019).

Read-outs that look alike come from different tables or passages of the source.

What all share (format): cell-based
The target of one test is T1, MOR receptor (Homo sapiens, UniProt P35372).
T1 construct: host or cells: CHO-K1
Put plainly: Activation of the β-arrestin signaling pathway of MOR receptor (CHO-K1 OPRM1 β-Arrestin cells, DiscoveRX). The settings on record: for Emax: maximum effect of morphine is 100%. The method, then:
The experiment objective is to determine the activity of the compounds of the present invention on activating the β-arrestin signaling pathway of MOR receptor.
The drug was prepared as a 20 mM stock solution that was later diluted with 100% DMSO to a 200×concentration gradient, and then diluted with a 20-fold AssayComplete™ Cell Plating 2 Reagent (93-0563R2B, DiscoveRX) medium. The cell culture plate inoculated on the first day was taken out, and 10 μl of the diluted drug or control (0.5% DMSO) was added to each well. The plate was gently shaken and placed in an incubator at 37° C., 5% CO2 for 90 minutes. Finally, 50 μL of a detection reagent (93-0001, DiscoveRX) were added to each well, and the plate was placed at room temperature for 60 minutes. The absorbance values were measured by the cold light model of a microplate reader (PE, Victor3). The EC50 values of the compounds were calculated by Graphpad Prism software according to each concentration of the compound and the corresponding signal value.

The target of another test is T2, μ-opioid receptors (MOR) (Homo sapiens, UniProt P35372).
T2 construct: host or cells: HEK293
T2 sequence (P35372 whole entry): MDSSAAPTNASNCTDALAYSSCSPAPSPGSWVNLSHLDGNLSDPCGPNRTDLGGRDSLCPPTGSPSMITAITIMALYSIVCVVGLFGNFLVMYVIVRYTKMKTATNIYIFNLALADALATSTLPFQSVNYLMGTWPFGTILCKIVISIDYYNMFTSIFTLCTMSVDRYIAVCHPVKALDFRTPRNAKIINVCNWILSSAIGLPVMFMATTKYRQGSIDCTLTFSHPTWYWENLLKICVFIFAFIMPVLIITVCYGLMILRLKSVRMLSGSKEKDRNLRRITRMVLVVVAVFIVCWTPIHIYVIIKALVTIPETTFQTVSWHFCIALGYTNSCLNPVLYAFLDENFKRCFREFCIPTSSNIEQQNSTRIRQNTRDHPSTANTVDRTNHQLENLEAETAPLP
Put plainly: MOR activity test: HEK293/MOR/CRE luciferase reporter, agonizing MOR and affecting downstream cAMP levels. The settings on record: for Emax: HEK293, maximum effect of TRV-130 is 100%, read-out: Emax on agonizing MOR receptor and affecting cAMP levels. The text has this: The compounds of the present invention can activate μ-opioid receptors (MOR). Activated MOR can regulate intracellular cAMP levels, and cAMP enters the nucleus and binds to the CRE region of the reporter gene luciferase, thereby initiating the expression of the reporter gene. Luciferase can react with its substrate to emit fluorescence, and the measured fluorescence signals reflect the agonistic activity of the compounds.
The activity of the test example compounds on agonizing MOR and affecting downstream cAMP levels was tested by the following method.
MOR/pcDNA3.1 (+) and CRE/pGL4.29 were transferred into HEK293 cells. G418 and hygromycin were added into the culture medium, and HEK293/MOR/CRE monoclonal cell lines were screened in a 96-well cell culture plate.
HEK293/MOR/CRE monoclonal cells were cultured in a DMEM/high glucose medium (10% FBS, 1 mg/ml G418, 200 μg/ml hygromycin, mixed uniformly), and passaged every 3 days. On the day of the experiment, a cell suspension was prepared with a fresh cell medium, added to a 96 well plate (BD, #356692) with 20,000 cells/well, and incubated in 5% CO2 at 37° C. On the second day, the compound was dissolved in pure DMSO at a concentration of 20 mM, then formulated with DMSO to a first concentration of 4 mM and diluted in 10 fold concentration gradient to 6 concentrations. Then, 90 μl of DMSO was added to blank and control wells. Then, formulated compound was prepared by adding 2.5 μl of the compound solutions formulated in DMSO at a gradient concentration to 97.5 μl of a fresh cell culture medium containing 5 μM foscolin. Then, 10 μl of the formulated compound was added to the cell culture plate to make the final concentration of the compound 10000, 1000, 100, 10, 1, 0.1, or 0.01 nM, and the plate was incubated at 37° C., in 5% CO2 for 5 hours. In a 96-well cell culture plate, 100 μl of luciferase assay solution (Promega, # E6110) was added to each well. The plate was placed in the dark at room temperature for 10-15 minutes, blowed and aspirated 10 times, and 100 μl were pipetted to a 96 well white plate. The chemiluminescence signal values were read in a microplate reader (PE, Victor3), and the read data was processed using software.
The activity of the compounds of the present invention on agonizing MOR and affecting downstream cAMP levels was determined by the above test, and the EC50 values are shown in Table 1.1.
Background: A reporter such as luciferase makes a cellular process visible.

A further test has as its target T3, hERG potassium channel (Homo sapiens, UniProt Q12809).
T3 construct: expressed in transfected cells; host or cells: HEK293
Description: Blocking of hERG potassium current, automatic patch clamp on HEK293-hERG cells. The method, then: The blocking effect of the compounds of the present invention and the positive compound TRV-130 (Journal of Pharmacology and Experimental Therapeutics, Volume 344, Issue 3, Pages 708-717, 2013) on hERG potassium current was tested on a stable cell line transfected with hERG potassium channel using an automatic patch clamp.
HEK293-hERG stabilized cells were subcultured at a density of 1:4 in a MEM/EBSS medium (10% FBS, 400 μg/ml G418, 1% MEM nonessential amino acid solution (100×), 1% sodium pyruvate solution) for 48-72 hours, then the automatic patch clamp experiment was performed. The cells were digested with 0.25% trypsin on the day of the experiment, then the cells were collected by centrifugation and resuspended with extracellular fluid (140 mM NaCl, 4 mM KCl, 1 mM MgCl2, 2 mM CaCl2, 5 mM D-glucose monohydrate, 10 mM Hepes, pH 7.4, 298 mOsmol) into a cell suspension. The cell suspension was placed on the cell bank of the Patchliner instrument, and the cells were added to the chip (NPC-16) by the negative pressure controller of the Patchliner instrument, with negative pressure attracting individual cells to the small hole of the chip. After the whole cell model was formed, the instrument generated the hERG current according to the preset hERG current and voltage program, and then the instrument perfused the compound from low concentration to high concentration automatically. HEAK Patchmaster, HEAK EPC10 patch clamp amplifier (Nanion), Pathliner software, and a data analysis software provided by Pathcontrol HTsoftware were used to analyze the current of the compounds at different concentrations and the current of the blank control.
The blocking effect of the compounds of the present invention on hERG potassium current was determined by the above test, and the IC50 values are shown in Table 3.

[1] abbreviates: CHO-K1 OPRM1 β-Arrestin cells, 90 minutes, read-out: EC50 on the β-arrestin signaling pathway.
[2] abbreviates: HEK293/MOR/CRE cells, 5 h incubation, forskolin, read-out: EC50 on agonizing MOR receptor and affecting cAMP levels.
[3] abbreviates: HEK293-hERG cells, automatic patch clamp, read-out: IC50 on blocking hERG potassium current.

As a reminder, the EC50 is the concentration giving half of the maximal effect. The Emax is the maximal effect, on the per cent scale that the assay sets. A word on the IC50: it is the concentration that gives 50% inhibition.

T1 sequence (P35372 whole entry): as above
T3 sequence (Q12809 whole entry): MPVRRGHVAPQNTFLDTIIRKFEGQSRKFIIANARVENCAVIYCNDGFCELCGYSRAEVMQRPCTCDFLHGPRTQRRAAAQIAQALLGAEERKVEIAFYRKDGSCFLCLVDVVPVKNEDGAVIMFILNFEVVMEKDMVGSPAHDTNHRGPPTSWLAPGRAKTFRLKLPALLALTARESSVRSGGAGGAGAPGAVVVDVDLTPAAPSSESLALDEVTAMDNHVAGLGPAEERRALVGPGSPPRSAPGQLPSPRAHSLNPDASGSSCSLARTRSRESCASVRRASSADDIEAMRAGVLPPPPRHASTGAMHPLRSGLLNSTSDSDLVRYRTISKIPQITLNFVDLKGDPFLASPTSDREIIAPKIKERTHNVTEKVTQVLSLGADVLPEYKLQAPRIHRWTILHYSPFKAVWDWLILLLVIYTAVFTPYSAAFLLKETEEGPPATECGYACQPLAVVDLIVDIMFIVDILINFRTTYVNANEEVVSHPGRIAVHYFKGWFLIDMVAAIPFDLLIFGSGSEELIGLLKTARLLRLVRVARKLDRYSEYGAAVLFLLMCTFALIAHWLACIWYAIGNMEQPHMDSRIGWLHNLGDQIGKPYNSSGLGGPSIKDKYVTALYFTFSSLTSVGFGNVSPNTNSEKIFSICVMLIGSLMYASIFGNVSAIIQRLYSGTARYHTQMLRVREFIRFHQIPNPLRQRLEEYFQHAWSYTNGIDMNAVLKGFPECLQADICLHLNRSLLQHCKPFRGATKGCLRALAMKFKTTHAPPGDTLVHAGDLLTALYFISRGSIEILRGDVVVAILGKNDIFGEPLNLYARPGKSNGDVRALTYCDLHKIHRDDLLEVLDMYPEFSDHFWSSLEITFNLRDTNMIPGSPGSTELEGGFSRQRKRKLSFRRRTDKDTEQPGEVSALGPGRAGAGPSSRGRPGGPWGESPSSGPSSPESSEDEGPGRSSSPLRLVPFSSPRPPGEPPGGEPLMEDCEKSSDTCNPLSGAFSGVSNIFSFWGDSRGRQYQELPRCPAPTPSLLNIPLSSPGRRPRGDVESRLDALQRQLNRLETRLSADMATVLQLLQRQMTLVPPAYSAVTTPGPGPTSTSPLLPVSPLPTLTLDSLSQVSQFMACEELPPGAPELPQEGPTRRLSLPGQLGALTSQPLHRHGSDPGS

Take `CCN1CC[C@H](NCC[C@@]2(c3ccccn3)CCOC3(CCCC3)C2)c2ccccc21` [Example 1, (S)-1-ethyl-N-(2-((R)-9-(pyridin-2-yl)-6-oxaspiro[4.5]decan-9-yl)ethyl)-1,2,3,4-tetrahydroquinolin-4-amine]: the EC50 on MOR receptor (setting [1]) came out at 4 nM; at μ-opioid receptors (MOR) (setting [2]), 10 nM. Also, the Emax worked out at 12% on MOR receptor and 102% on μ-opioid receptors (MOR). For the same compound, on hERG potassium channel (setting [3]), the IC50 was found to be 13000 nM.
`N#CCO[C@H]1CC[C@H](NCC[C@@]2(c3ccccn3)CCOC3(CCCC3)C2)c2ccccc21` [Example 29, 2-(((1S,4S)-4-((2-((R)-9-(pyridin-2-yl)-6-oxaspiro[4.5]decan-9-yl)ethyl)amino)-1,2,3,4-tetrahydronaphthalen-1-yl)oxy)acetonitrile]: the EC50 at MOR receptor (setting [1]) came out at 33 nM; at μ-opioid receptors (MOR) (setting [2]), 7 nM. Besides, the Emax stood at 32% at MOR receptor and 112% at μ-opioid receptors (MOR).
In the case of `O[C@H]1CC[C@H](NCC[C@@]2(c3ccccn3)CCOC3(CCCC3)C2)c2ccccc21` [Example 12, (1S,4S)-4-((2-((R)-9-(pyridin-2-yl)-6-oxaspiro[4.5]decan-9-yl)ethyl)amino)-1,2,3,4-tetrahydronaphthalen-1-ol], on μ-opioid receptors (MOR), the response was half-maximal at 2 nM (EC50) and the Emax is 125%. At hERG potassium channel, this compound had an IC50 of 10200 nM.
`COc1ccsc1CNCC[C@@]1(c2ccccn2)CCOC2(CCCC2)C1` [TRV-130, reference compound] gave an IC50 against hERG potassium channel of 1600 nM.
In turn, `c1ccc([C@]2(CCN[C@H]3CCC4(OCCO4)c4ccccc43)CCOC3(CCCC3)C2)nc1` [Example 33, (S)-N-(2-((R)-9-(pyridin-2-yl)-6-oxaspiro[4.5]decan-9-yl)ethyl)-3,4-dihydro-2H-spiro[naphthalen-1,2′-[1,3]dioxolane]-4-amine] had an Emax at MOR receptor of 27%.
In the case of `c1ccc([C@]2(CCN[C@H]3CCOc4ccccc43)CCOC3(CCCC3)C2)nc1` (single isomer, unassigned) [Example 5], at μ-opioid receptors (MOR), a half-maximal response (EC50) required 5 nM and the Emax is 122%. Also, the IC50 at hERG potassium channel stood at 6200 nM.
Turning to `c1ccc([C@]2(CCN[C@H]3CCC4(SCCS4)c4ccccc43)CCOC3(CCCC3)C2)nc1` [Example 24, (S)-N-(2-((R)-9-(pyridin-2-yl)-6-oxaspiro[4.5]decan-9-yl)ethyl)-3′,4′-dihydro-2′H-spiro[[1,3]dithiolane-2,1′-naphthalen]-4′-amine], the EC50 on MOR receptor (setting [1]) was found to be 6 nM; on μ-opioid receptors (MOR) (setting [2]), 0.8 nM. Besides, the Emax on MOR receptor is 30%; on μ-opioid receptors (MOR) it was 102%. For the same compound, the IC50 on hERG potassium channel (setting [3]) stood at 2500 nM.
For the compound `O[C@@H]1CC[C@H](NCC[C@@]2(c3ccccn3)CCOC3(CCCC3)C2)c2ccccc21` [Example 13, (1R,4S)-4-((2-((R)-9-(pyridin-2-yl)-6-oxaspiro[4.5]decan-9-yl)ethyl)amino)-1,2,3,4-tetrahydronaphthalen-1-ol], at μ-opioid receptors (MOR), the EC50 was determined as 8 nM and the Emax turned out to be 130%. At hERG potassium channel, this compound displayed an IC50 of 13500 nM.
`C=C1CC[C@H](NCC[C@@]2(c3ccccn3)CCOC3(CCCC3)C2)c2ccccc21` [Example 28, (S)-4-methylene-N-(2-((R)-9-(pyridin-2-yl)-6-oxaspiro[4.5]decan-9-yl)ethyl)-1,2,3,4-tetrahydronaphthalen-1-amine]: on MOR receptor, the EC50 is 15 nM and the Emax came out at 22%.
With `CCCO[C@H]1CC[C@H](NCC[C@@]2(c3ccccn3)CCOC3(CCCC3)C2)c2ccccc21` [Example 34, (1S,4S)-4-propoxy-N-(2-((R)-9-(pyridin-2-yl)-6-oxaspiro[4.5]decan-9-yl)ethyl)-1,2,3,4-tetrahydronaphthalen-1-amine], on MOR receptor (setting [1]), the concentration for a half-maximal effect (EC50) came to 16 nM. Besides, at MOR receptor, the Emax was 10%.
In the case of `c1ccc([C@]2(CCN[C@H]3CCc4ccccc43)CCOC3(CCCC3)C2)nc1` [Example 16, (S)-N-(2-((R)-9-(pyridin-2-yl)-6-oxaspiro[4.5]decan-9-yl)ethyl)-2,3-dihydro-1H-inden-1-amine], the EC50 came out at 94 nM at MOR receptor and 9 nM on μ-opioid receptors (MOR). Besides, the Emax at MOR receptor came out at 9%; at μ-opioid receptors (MOR) it was 122%. The compound further displayed an IC50 against hERG potassium channel of 10000 nM.
As to `c1ccc([C@]2(CCN[C@H]3CCOc4ccccc43)CCOC3(CCCC3)C2)nc1` [Example 6, (S)-N-(2-((R)-9-(pyridin-2-yl)-6-oxaspiro[4.5]decan-9-yl)ethyl)chroman-4-amine], at μ-opioid receptors (MOR), a half-maximal response (EC50) required 1 nM and the Emax was 115%. On hERG potassium channel, this compound gave an IC50 of 3800 nM.
On to `CCN1CC[C@@H](NCC[C@@]2(c3ccccn3)CCOC3(CCCC3)C2)c2ccccc21` [Example 2, (R)-1-ethyl-N-(2-((R)-9-(pyridin-2-yl)-6-oxaspiro[4.5]decan-9-yl)ethyl)-1,2,3,4-tetrahydroquinolin-4-amine], for which the EC50 on MOR receptor (setting [1]) and on μ-opioid receptors (MOR) (setting [2]) was > 10000 nM each time. For the same compound, the Emax on MOR receptor is 4%; at μ-opioid receptors (MOR), 0%.
As for `O[C@@H]1Cc2ccccc2[C@H]1NCC[C@@]1(c2ccccn2)CCOC2(CCCC2)C1` [Example 3, (1R,2R)-1-((2-((R)-9-(pyridin-2-yl)-6-oxaspiro[4.5]decan-9-yl)ethyl)amino)-2,3-dihydro-1H-inden-2-ol], at μ-opioid receptors (MOR), a half-maximal effect (EC50) was put at 2 nM and the Emax turned out to be 124%. Besides, on hERG potassium channel, the IC50 is > 30000 nM.
